Reference: patent publication US20250122223A1, “HETEROCYCLIC COMPOUNDS AS UBIQUITIN SPECIFIC PROTEASE 7 INHIBITORS” (ALMAC DISCOVERY LIMITED, priority 2022, published 2025)
In brackets after ≈: the same amount, converted by molar mass.

How the values were obtained:
[1] = CLint/CLhep estimates using liver microsomes (rat); format: in vitro ADME
Description: (§1) Test compounds (final concentration=1 μM; final DMSO concentration=0.1%) were incubated in 0.1M phosphate buffer pH 7.4 with liver microsomes (human, mouse, rat or dog; 0.5 mg of protein/mL) at 37° C. Reactions were started by addition of NADPH in 0.1M phosphate buffer pH 7.4 (final concentration 1 mM). 40 μL aliquots were removed at 3, 6, 10, 15, 20, 30, 40 and 50 minutes. Reactions were quenched in 80 μL of ice-cold methanol. Samples were subsequently frozen overnight then centrifuged at 3500 rpm for 20 minutes at 4° C. The supernatants were removed and transferred into analytical plates and analysed by LC/MS/MS.
(§2) All samples were analysed on a Waters Acquity I-Class coupled to a Waters Xevo TQD mass spectrometer. A Waters BEH C18 2.1×50 mm 1.7 μm column was used and mobile phases were water and methanol containing 0.1% formic acid as modifier. Analysis was by multiple reaction monitoring and conditions were optimised for each test compound.
(§3) From a plot of In peak area against time, the gradient of the line is determined.
(§4) Subsequently, half-life and intrinsic clearance are calculated using the equations below: […]
(§5) The CLhep was calculated as follows: […]
(§6) Where CLint (mL/min/kg) is the intrinsic clearance scaled to a whole liver and Qh is hepatic liver blood flow.

[2] = Kinetic solubility in PBS buffer; format: physicochemical; settings: aqueous buffer, kinetic from dmso stock; PBS buffer pH 7.4
Description: Test compounds (5 μL; 10 mM DMSO stock) were added to 245 μL of PBS buffer pH 7.4 (Dulbecco A) in a Millipore MultiScreen® Solubility Filter plate and mixed at 300 rpm at room temperature on a plate shaker for 90 minutes. Meanwhile 5-points calibration curves for each compound were established in a mixture of acetonitrile/PBS buffer (top concentration 200 μM). After filtration and matrix match, the calibration and assay plates were analysed on a BMG Labtech CLARIOstar plate reader (240-400 nm). Final concentration of the test compound in the filtrate was calculated using the slope of the calibration curve.

[3] = Pharmacokinetic (PK) parameters in mouse; format: in vivo, BALB/c mouse; settings: for AUC(0-inf) / half-life / Vd: blood; for Vd: read-out: Vss
[4] = molecular target: T1, USP7 (Homo sapiens (Human), UniProt Q93009); assay: Target engagement assay-HTRF, competition with HA-Ub-VPS probe in HEK293 cells stably expressing Flag-tagged USP7; format: cell-based; settings: HEK293 stable clone M6C5, 2 h treatment; read-out: Cellular target engagement: HEK293 Stable clone M6C5 USP7 IC50
T1 sequence (Q93009 whole entry): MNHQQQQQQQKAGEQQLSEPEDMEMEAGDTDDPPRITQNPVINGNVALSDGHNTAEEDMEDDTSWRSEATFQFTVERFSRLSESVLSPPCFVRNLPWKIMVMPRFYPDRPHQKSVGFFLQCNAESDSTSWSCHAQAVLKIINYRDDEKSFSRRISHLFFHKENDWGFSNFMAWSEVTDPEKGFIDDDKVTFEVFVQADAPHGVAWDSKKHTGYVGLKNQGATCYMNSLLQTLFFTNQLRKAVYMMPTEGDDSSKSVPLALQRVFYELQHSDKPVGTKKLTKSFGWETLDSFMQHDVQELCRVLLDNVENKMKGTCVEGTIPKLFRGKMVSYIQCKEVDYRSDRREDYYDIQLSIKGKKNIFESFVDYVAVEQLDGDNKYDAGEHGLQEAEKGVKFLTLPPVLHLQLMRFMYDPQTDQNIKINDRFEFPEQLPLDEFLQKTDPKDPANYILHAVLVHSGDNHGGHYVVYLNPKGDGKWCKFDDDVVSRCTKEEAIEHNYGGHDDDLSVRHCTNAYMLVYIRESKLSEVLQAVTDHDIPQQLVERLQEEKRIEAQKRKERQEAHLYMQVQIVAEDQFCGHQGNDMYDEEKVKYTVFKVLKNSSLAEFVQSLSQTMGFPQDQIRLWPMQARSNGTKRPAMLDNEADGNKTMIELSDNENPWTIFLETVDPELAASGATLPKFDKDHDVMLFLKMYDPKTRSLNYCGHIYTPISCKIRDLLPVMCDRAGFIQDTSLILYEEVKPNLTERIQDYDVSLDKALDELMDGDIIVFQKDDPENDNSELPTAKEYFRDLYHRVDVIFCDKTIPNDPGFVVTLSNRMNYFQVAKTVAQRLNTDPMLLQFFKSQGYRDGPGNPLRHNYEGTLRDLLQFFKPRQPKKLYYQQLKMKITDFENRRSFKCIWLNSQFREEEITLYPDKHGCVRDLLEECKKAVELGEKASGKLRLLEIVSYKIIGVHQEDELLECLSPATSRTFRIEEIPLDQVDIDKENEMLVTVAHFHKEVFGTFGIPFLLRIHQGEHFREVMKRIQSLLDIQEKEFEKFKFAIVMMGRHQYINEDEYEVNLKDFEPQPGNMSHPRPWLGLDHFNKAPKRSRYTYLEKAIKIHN
Description: HEK293 cells stably expressing Flag-tagged USP7 were treated with vehicle (DMSO) or compound (using 50 μM starting concentration and 11 dp using 1:3 serial dilution) for 2 h and subsequently lysed on ice and homogenised. Cell lysate and HA-Ub-VPS probe was then added to a white flat bottomed 384 well plate (Greiner) to a total volume of 10 μL and incubated for 40 min. 10 μL of D2 and Tb detection antibodies were subsequently added to give a final assay volume of 20 μL. Following incubation, HTRF were measured using a Pherastar FSX (BMG Labtech) exciting at 337 nm and measuring the emission at 620/665 nm. The HTRF ratiometric signal was derived and subsequently normalised to the lysate only controls. Data were plotted and fitted, and the concentrations resulting in 50% inhibition (IC50) were calculated using the non-linear regression curve fitting model using GraphPad Prism. IC50 values for the inhibitors of the invention are compiled in Table 1 above and represent the average of at least duplicate experiments.

[5] = CLint/CLhep estimates using liver microsomes (dog); format: in vitro ADME
Description: as §1, §2, §3, §4, §5, §6

[6] = molecular target: T1, USP7; assay: USP7 fluorescence polarisation (FP) assay with ubiquitin-Lys-TAMRA substrate; format: biochemical
[7] = CLint/CLhep estimates using liver microsomes (mouse); format: in vitro ADME
Description: as §1, §2, §3, §4, §5, §6

[8] = CLint/CLhep estimates using liver microsomes (human); format: in vitro ADME
Description: as §1, §2, §3, §4, §5, §6

[9] = average of at least duplicate experiments, read-out: Biochemical: USP7 IC50
[10] = biochemical inhibition, read-out: USP7 IC50 activity (Table 3a, classes)
[11] = biochemical inhibition, unit not given in Table 3b (Table 1 and key of Table 3a use μM), read-out: USP7 IC50 activity (Table 3b)

Compound	Liver Microsomes: CLhep Rat [1]	solubility kinetic at 90 min [2]	CLb ([3]; BALB/c mouse IV 1 mg/kg)	F ([3]; BALB/c mouse PO 3 mg/kg)	AUC(0-inf) ([3]; BALB/c mouse IV 1 mg/kg)	half-life ([3]; BALB/c mouse IV 1 mg/kg)	Vd ([3]; BALB/c mouse IV 1 mg/kg)	AUC(0-inf) ([3]; BALB/c mouse PO 3 mg/kg)	IC50 [4]	Liver Microsomes: CLhep Dog [5]	IC50 [6, 9]	IC50 [6, 10]	IC50 [6, 11]	Liver Microsomes: CLhep Mouse [7]	Liver Microsomes: CLhep Human [8]
C[C@H]1CN[C@H](c2ccc(-n3c(Cl)cc4c(=O)n(CC5(O)CCN(C(=O)c6ccc(F)cc6)CC5)cnc43)cc2)CO1 [Example 21, 6-Chloro-3-((1-(4-fluorobenzoyl)-4-hydroxypiperidin-4-yl)methyl)-7-(4-((3R,6S)-6-methylmorpholin-3-yl)phenyl)-3,7-dihydro-4H-pyrrolo[2,3-d]pyrimidin-4-one]	6.5 mL/min/kg	203 µM (≈ 118 µg/mL)	35.1 mL/min/kg	40.3%	479 ng·h/mL	2.09 h	3.89 L/kg	593 ng·h/mL	180 nM	4.5 mL/min/kg	0.11 µM	0.1 to 0.25 µM	0.108 µM	19.1 mL/min/kg	3.2 mL/min/kg
C[C@H]1OCCN[C@@H]1c1ccc(-n2c(Cl)cc3c(=O)n(CC4(O)CCN(C(=O)c5ccc(Cl)cc5)CC4)cnc32)cc1 [Example 8, 6-Chloro-3-((1-(4-chlorobenzoyl)-4-hydroxypiperidin-4-yl)methyl)-7-(4-((2R,3R)-2-methylmorpholin-3-yl)phenyl)-3,7-dihydro-4H-pyrrolo[2,3-d]pyrimidin-4-one]	–	–	–	–	–	–	–	–	66 nM	–	0.077 µM	< 0.1 µM	0.077 µM	–	–
Cc1cc(-n2c(Cl)cc3c(=O)n(CC4(O)CCN(C(=O)[C@]5(C)C[C@H]5C(F)(F)F)CC4)cnc32)ccc1[C@H]1CO[C@H](C)CN1 (single isomer, unassigned) [Example 62]	–	–	–	–	–	–	–	–	100 nM	–	0.038 µM	< 0.1 µM	0.038 µM	–	–
CC[C@H]1CN[C@H](c2ccc(-n3c(Cl)cc4c(=O)n(CC5(O)CCN(C(=O)[C@]6(C)C[C@H]6C(F)(F)F)CC5)cnc43)cc2)CO1 (single isomer, unassigned) [Example 66, 6-Chloro-7-(4-((3R,6S)-6-ethylmorpholin-3-yl)phenyl)-3-((4-hydroxy-1-((1 S,2S)-1-methyl-2-(trifluoromethyl)cyclopropane-1-carbonyl)piperidin-4-yl)methyl)-3,7-dihydro-4H-pyrrolo[2,3-d]pyrimidin-4-one or 6-chloro-7-(4-((3R,6S)-6-ethylmorpholin-3-yl)phenyl)-3-((4-hydroxy-1-((1R,2R)-1-methyl-2-(trifluoromethyl)cyclopropane-1-carbonyl)piperidin-4-yl)methyl)-3,7-dihydro-4H-pyrrolo[2,3-d]pyrimidin-4-one]	–	–	–	–	–	–	–	–	74 nM	–	0.063 µM	< 0.1 µM	0.063 µM	–	–
CC1(C(=O)N2CCC(O)(Cn3cnc4c(cc(Cl)n4-c4ccc([C@H]5COCCN5)cc4)c3=O)CC2)CC1C(F)(F)F (stereo partly drawn) [Example 83, 6-Chloro-3-((4-hydroxy-1-(1-methyl-2-(trifluoromethyl)cyclopropane-1-carbonyl)piperidin-4-yl)methyl)-7-(4-((S)-morpholin-3-yl)phenyl)-3,7-dihydro-4H-pyrrolo[2,3-d]pyrimidin-4-one]	–	–	–	–	–	–	–	–	76 nM	–	0.028 µM	< 0.1 µM	0.028 µM	–	–
Cc1cc(-n2c(Cl)cc3c(=O)n(CC4(O)CCN(C(=O)C[C@H](c5ccccc5)C(F)(F)F)CC4)cnc32)ccc1[C@H]1CO[C@H](C)CN1 [Example 14, 6-Chloro-3-((4-hydroxy-1-((R)-4,4,4-trifluoro-3-phenylbutanoyl)piperidin-4-yl)methyl)-7-(3-methyl-4-((3S,6R)-6-methylmorpholin-3-yl)phenyl)-3,7-dihydro-4H-pyrrolo[2,3-d]pyrimidin-4-one]	–	–	–	–	–	–	–	–	40 nM	–	0.018 µM	< 0.1 µM	0.018 µM	–	–
CC1(C(=O)N2CCC(O)(Cn3cnc4c(cc(Cl)n4-c4cccc(N5CCOCC5)c4)c3=O)CC2)CC1 [Comparative Example, reference compound]	27 mL/min/kg	151 µM (≈ 79.4 µg/mL)	–	–	–	–	–	–	> 50000 nM	22.3 mL/min/kg	0.19 µM	–	–	63.9 mL/min/kg	14.5 mL/min/kg
C[C@H]1CN[C@H](c2ccc(-n3c(Cl)cc4c(=O)n(CC5(O)CCN(C(=O)[C@]6(C)C[C@H]6C(F)(F)F)CC5)cnc43)cc2)CO1 (single isomer, unassigned) [Example 32, 6-Chloro-3-((4-hydroxy-1-((1S,2S)-1-methyl-2-(trifluoromethyl)cyclopropane-1-carbonyl)piperidin-4-yl)methyl)-7-(4-((3R,6S)-6-methylmorpholin-3-yl)phenyl)-3,7-dihydro-4H-pyrrolo[2,3-d]pyrimidin-4-one or 6-chloro-3-((4-hydroxy-1-((1R,2R)-1-methyl-2-(trifluoromethyl)cyclopropane-1-carbonyl)piperidin-4-yl)methyl)-7-(4-((3R,6S)-6-methylmorpholin-3-yl)phenyl)-3,7-dihydro-4H-pyrrolo[2,3-d]pyrimidin-4-one]	6.5 mL/min/kg	197 µM (≈ 120 µg/mL)	28.2 mL/min/kg	116%	591 ng·h/mL	3.5 h	5.49 L/kg	2100 ng·h/mL	130 nM	4.5 mL/min/kg	0.048 µM	< 0.1 µM	0.048 µM	11.5 mL/min/kg	5.8 mL/min/kg
O=C(C[C@H](c1ccccc1)C(F)F)N1CCC(O)(Cn2cnc3c(cc(Cl)n3-c3ccc([C@H]4COCCN4)cc3)c2=O)CC1 (single isomer, unassigned) [Example 82]	–	–	–	–	–	–	–	–	9.4 nM	–	0.006 µM	< 0.1 µM	0.006 µM	–	–
O=C(c1ccc(Cl)cc1)N1CCC(O)(Cn2cnc3c(cc(Cl)n3-c3ccc(C4COCC5(CC5)N4)cc3)c2=O)CC1 (stereo not drawn) [Example 18, 7-(4-(7-Oxa-4-azaspiro[2.5]octan-5-yl)phenyl)-6-chloro-3-((1-(4-chlorobenzoyl)-4-hydroxypiperidin-4-yl)methyl)-3,7-dihydro-4H-pyrrolo[2,3-d]pyrimidin-4-one]	–	–	–	–	–	–	–	–	–	–	–	0.25 to 2 µM	0.378 µM	–	–
